Source: paper PMC6946680, “Modulation of brain cation-Cl^− cotransport via the SPAK kinase inhibitor ZT-1a” (Nature Communications, 2020)

How the values were obtained:
Experiment in all cases: Kinase profiling panel
Format in all cases: biochemical
ASK1 = system: ASK1
Procedure: (§1) Supplementary Table 2. ZT-1a kinase profiling data6.
(§2) ZT-1a was tested at 10 and 1 µM against a panel of 140 recombinant kinases in an enzymatic
(§3) activity-based assay performed by the International Centre for Kinase Profiling in the MRC
(§4) Protein Phosphorylation and Ubiquitylation Unit. Values represent % residual kinase activity

BRSK2 = system: BRSK2
Procedure: as §1, §2, §3, §4

CAMK1 = system: CAMK1
Procedure: as §1, §2, §3, §4

CAMKKb = system: CAMKKb
Procedure: as §1, §2, §3, §4

CDK2-Cyclin A = system: CDK2-Cyclin A
Procedure: as §1, §2, §3, §4

CDK9-Cyclin T1 = system: CDK9-Cyclin T1
Procedure: as §1, §2, §3, §4

CK1γ2 = system: CK1γ2
Procedure: as §1, §2, §3, §4

CK1δ = system: CK1δ
Procedure: as §1, §2, §3, §4

CLK2 = system: CLK2
Procedure: as §1, §2, §3, §4

DDR2 = system: DDR2
Procedure: as §1, §2, §3, §4

EIF2AK3 = system: EIF2AK3
Procedure: as §1, §2, §3, §4

EPH-A2 = system: EPH-A2
Procedure: as §1, §2, §3, §4

EPH-B1 = system: EPH-B1
Procedure: as §1, §2, §3, §4

EPH-B4 = system: EPH-B4
Procedure: as §1, §2, §3, §4

ERK2 = system: ERK2
Procedure: as §1, §2, §3, §4

ERK8 = system: ERK8
Procedure: as §1, §2, §3, §4

GSK3b = system: GSK3b
Procedure: as §1, §2, §3, §4

IRAK1 = system: IRAK1
Procedure: as §1, §2, §3, §4

IRAK4 = system: IRAK4
Procedure: as §1, §2, §3, §4

IRR = system: IRR
Procedure: as §1, §2, §3, §4

IR = system: IR
Procedure: as §1, §2, §3, §4

JNK1 = system: JNK1
Procedure: as §1, §2, §3, §4

JNK2 = system: JNK2
Procedure: as §1, §2, §3, §4

LKB1 = system: LKB1
Procedure: as §1, §2, §3, §4

MELK = system: MELK
Procedure: as §1, §2, §3, §4

MINK1 = system: MINK1
Procedure: as §1, §2, §3, §4

MKK2 = system: MKK2
Procedure: as §1, §2, §3, §4

MNK1 = system: MNK1
Procedure: as §1, §2, §3, §4

MST2 = system: MST2
Procedure: as §1, §2, §3, §4

NEK2a = system: NEK2a
Procedure: as §1, §2, §3, §4

PAK5 = system: PAK5
Procedure: as §1, §2, §3, §4

PIM2 = system: PIM2
Procedure: as §1, §2, §3, §4

PKCa = system: PKCa
Procedure: as §1, §2, §3, §4

PRK2 = system: PRK2
Procedure: as §1, §2, §3, §4

RIPK2 = system: RIPK2
Procedure: as §1, §2, §3, §4

S6K1 = system: S6K1
Procedure: as §1, §2, §3, §4

SIK2 = system: SIK2
Procedure: as §1, §2, §3, §4

SRPK1 = system: SRPK1
Procedure: as §1, §2, §3, §4

SYK = system: SYK
Procedure: as §1, §2, §3, §4

Src = system: Src
Procedure: as §1, §2, §3, §4

TGFBR1 = system: TGFBR1
Procedure: as §1, §2, §3, §4

TLK1 = system: TLK1
Procedure: as §1, §2, §3, §4

TSSK1 = system: TSSK1
Procedure: as §1, §2, §3, §4

ULK1 = system: ULK1
Procedure: as §1, §2, §3, §4

Cc1cc(C(C#N)c2ccc(Cl)cc2)c(Cl)cc1NC(=O)c1cc(Cl)ccc1O (stereo not shown) [ZT-1a, 5-chloro-N-(5-chloro-4-((4-chlorophenyl)(cyano)methyl)-2-methylphenyl)-2-hydroxybenzamide]
% residual kinase activity (ASK1; 1 µM): 101±3%
% residual kinase activity (ASK1; 10 µM): 100±11%
% residual kinase activity (BRSK2; 1 µM): 115±14%
% residual kinase activity (BRSK2; 10 µM): 104±0%
% residual kinase activity (CAMK1; 1 µM): 60±5%
% residual kinase activity (CAMK1; 10 µM): 71±31%
% residual kinase activity (CAMKKb; 1 µM): 115±10%
% residual kinase activity (CAMKKb; 10 µM): 102±9%
% residual kinase activity (CDK2-Cyclin A; 1 µM): 128±12%
% residual kinase activity (CDK2-Cyclin A; 10 µM): 125±6%
% residual kinase activity (CDK9-Cyclin T1; 1 µM): 104±0%
% residual kinase activity (CDK9-Cyclin T1; 10 µM): 108±1%
% residual kinase activity (CK1γ2; 1 µM): 112±12%
% residual kinase activity (CK1γ2; 10 µM): 124±23%
% residual kinase activity (CK1δ; 1 µM): 116±5%
% residual kinase activity (CK1δ; 10 µM): 114±9%
% residual kinase activity (CLK2; 1 µM): 68±12%
% residual kinase activity (CLK2; 10 µM): 33±45%
% residual kinase activity (DDR2; 1 µM): 111±20%
% residual kinase activity (DDR2; 10 µM): 99±8%
% residual kinase activity (EIF2AK3; 1 µM): 114±2%
% residual kinase activity (EIF2AK3; 10 µM): 100±3%
% residual kinase activity (EPH-A2; 1 µM): 89±23%
% residual kinase activity (EPH-A2; 10 µM): 78±11%
% residual kinase activity (EPH-B1; 1 µM): 77±15%
% residual kinase activity (EPH-B1; 10 µM): 80±19%
% residual kinase activity (EPH-B4; 1 µM): 100±8%
% residual kinase activity (EPH-B4; 10 µM): 151±33%
% residual kinase activity (ERK2; 1 µM): 111±25%
% residual kinase activity (ERK2; 10 µM): 75±3%
% residual kinase activity (ERK8; 1 µM): 104±11%
% residual kinase activity (ERK8; 10 µM): 63±3%
% residual kinase activity (GSK3b; 1 µM): 39±4%
% residual kinase activity (GSK3b; 10 µM): 38±12%
% residual kinase activity (IRAK1; 1 µM): 128±2%
% residual kinase activity (IRAK1; 10 µM): 95±7%
% residual kinase activity (IRAK4; 1 µM): 127±0%
% residual kinase activity (IRAK4; 10 µM): 127±11%
% residual kinase activity (IRR; 1 µM): 105±5%
% residual kinase activity (IRR; 10 µM): 95±4%
% residual kinase activity (IR; 1 µM): 105±2%
% residual kinase activity (IR; 10 µM): 86±13%
% residual kinase activity (JNK1; 1 µM): 106±4%
% residual kinase activity (JNK1; 10 µM): 110±5%
% residual kinase activity (JNK2; 1 µM): 102±2%
% residual kinase activity (JNK2; 10 µM): 147±51%
% residual kinase activity (LKB1; 1 µM): 107±8%
% residual kinase activity (LKB1; 10 µM): 115±11%
% residual kinase activity (MELK; 1 µM): 130±34%
% residual kinase activity (MELK; 10 µM): 63±3%
% residual kinase activity (MINK1; 1 µM): 107±5%
% residual kinase activity (MINK1; 10 µM): 108±6%
% residual kinase activity (MKK2; 1 µM): 126±2%
% residual kinase activity (MKK2; 10 µM): 81±27%
% residual kinase activity (MNK1; 1 µM): 78±19%
% residual kinase activity (MNK1; 10 µM): 87±2%
% residual kinase activity (MST2; 1 µM): 115±4%
% residual kinase activity (MST2; 10 µM): 113±2%
% residual kinase activity (NEK2a; 1 µM): 85±12%
% residual kinase activity (NEK2a; 10 µM): 91±6%
% residual kinase activity (PAK5; 1 µM): 93±26%
% residual kinase activity (PAK5; 10 µM): 93±4%
% residual kinase activity (PIM2; 1 µM): 93±5%
% residual kinase activity (PIM2; 10 µM): 93±3%
% residual kinase activity (PKCa; 1 µM): 97±4%
% residual kinase activity (PKCa; 10 µM): 83±2%
% residual kinase activity (PRK2; 1 µM): 118±4%
% residual kinase activity (PRK2; 10 µM): 120±7%
% residual kinase activity (RIPK2; 1 µM): 128±5%
% residual kinase activity (RIPK2; 10 µM): 120±3%
% residual kinase activity (S6K1; 1 µM): 119±10%
% residual kinase activity (S6K1; 10 µM): 81±2%
% residual kinase activity (SIK2; 1 µM): 105±16%
% residual kinase activity (SIK2; 10 µM): 76±8%
% residual kinase activity (SRPK1; 1 µM): 104±5%
% residual kinase activity (SRPK1; 10 µM): 73±20%
% residual kinase activity (SYK; 1 µM): 93±12%
% residual kinase activity (SYK; 10 µM): 93±1%
% residual kinase activity (Src; 1 µM): 107±4%
% residual kinase activity (Src; 10 µM): 84±13%
% residual kinase activity (TGFBR1; 1 µM): 63±9%
% residual kinase activity (TGFBR1; 10 µM): 77±5%
% residual kinase activity (TLK1; 1 µM): 130±13%
% residual kinase activity (TLK1; 10 µM): 124±4%
% residual kinase activity (TSSK1; 1 µM): 99±2%
% residual kinase activity (TSSK1; 10 µM): 74±6%
% residual kinase activity (ULK1; 1 µM): 87±10%
% residual kinase activity (ULK1; 10 µM): 89±13%
